Key:
Type in all cases: ADME
[1] = target: T1, Multidrug resistance-associated protein 1 (Homo sapiens, UniProt P33527); experiment: Activity at MRP1 (unknown origin) expressed in baculovirus-infected HEK293 cells assessed as drug transport at 400 uM after 10 mins by reversed-phase HPLC analysis in presence of ATP; conditions: hek293, 10 min, BLD = below limit of detection
[2] = Activity at P-gp (unknown origin) expressed in baculovirus-infected HEK293 cells assessed as drug transport at 400 uM after 10 mins by reversed-phase HPLC analysis in presence of ATP; conditions: human, hek293, 10 min
[3] = target: T2, ATP-binding cassette sub-family C member 2 (Homo sapiens, UniProt Q92887); experiment: Activity at MRP2 (unknown origin) expressed in baculovirus-infected HEK293 cells assessed as drug transport at 400 uM after 10 mins by reversed-phase HPLC analysis in presence of ATP; conditions: hek293, 10 min, BLD = below limit of detection
[4] = target: T3, Broad substrate specificity ATP-binding cassette transporter ABCG2 (Homo sapiens, UniProt Q9UNQ0); experiment: Activity at BCRP (unknown origin) expressed in baculovirus-infected HEK293 cells assessed as drug transport at 400 uM after 10 mins by reversed-phase HPLC analysis in presence of ATP; conditions: hek293, 10 min, BLD = below limit of detection
T3 sequence (Q9UNQ0 whole entry): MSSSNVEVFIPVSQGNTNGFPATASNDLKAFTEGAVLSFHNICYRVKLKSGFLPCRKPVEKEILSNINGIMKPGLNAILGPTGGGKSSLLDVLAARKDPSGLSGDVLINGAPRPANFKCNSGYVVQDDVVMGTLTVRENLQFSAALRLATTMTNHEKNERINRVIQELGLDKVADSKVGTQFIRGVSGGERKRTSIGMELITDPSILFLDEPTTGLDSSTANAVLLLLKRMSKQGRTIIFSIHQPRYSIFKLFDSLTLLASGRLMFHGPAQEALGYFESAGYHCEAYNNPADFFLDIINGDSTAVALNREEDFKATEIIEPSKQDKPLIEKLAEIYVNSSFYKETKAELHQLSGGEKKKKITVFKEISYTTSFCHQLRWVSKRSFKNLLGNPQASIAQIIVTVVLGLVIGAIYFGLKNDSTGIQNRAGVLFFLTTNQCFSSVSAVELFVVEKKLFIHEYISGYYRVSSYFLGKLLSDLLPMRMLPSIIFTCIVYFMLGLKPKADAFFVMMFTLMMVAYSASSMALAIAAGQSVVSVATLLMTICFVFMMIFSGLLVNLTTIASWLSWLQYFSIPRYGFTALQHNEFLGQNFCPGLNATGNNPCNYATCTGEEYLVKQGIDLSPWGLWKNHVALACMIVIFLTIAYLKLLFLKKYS

[5] = target: T4, ATP-binding cassette sub-family C member 4 (Homo sapiens, UniProt O15439); experiment: Activity at MRP4 (unknown origin) expressed in baculovirus-infected HEK293 cells assessed as drug transport at 400 uM after 10 mins by reversed-phase HPLC analysis in presence of ATP; conditions: hek293, 10 min, BLD = below limit of detection
T4 sequence (O15439 whole entry): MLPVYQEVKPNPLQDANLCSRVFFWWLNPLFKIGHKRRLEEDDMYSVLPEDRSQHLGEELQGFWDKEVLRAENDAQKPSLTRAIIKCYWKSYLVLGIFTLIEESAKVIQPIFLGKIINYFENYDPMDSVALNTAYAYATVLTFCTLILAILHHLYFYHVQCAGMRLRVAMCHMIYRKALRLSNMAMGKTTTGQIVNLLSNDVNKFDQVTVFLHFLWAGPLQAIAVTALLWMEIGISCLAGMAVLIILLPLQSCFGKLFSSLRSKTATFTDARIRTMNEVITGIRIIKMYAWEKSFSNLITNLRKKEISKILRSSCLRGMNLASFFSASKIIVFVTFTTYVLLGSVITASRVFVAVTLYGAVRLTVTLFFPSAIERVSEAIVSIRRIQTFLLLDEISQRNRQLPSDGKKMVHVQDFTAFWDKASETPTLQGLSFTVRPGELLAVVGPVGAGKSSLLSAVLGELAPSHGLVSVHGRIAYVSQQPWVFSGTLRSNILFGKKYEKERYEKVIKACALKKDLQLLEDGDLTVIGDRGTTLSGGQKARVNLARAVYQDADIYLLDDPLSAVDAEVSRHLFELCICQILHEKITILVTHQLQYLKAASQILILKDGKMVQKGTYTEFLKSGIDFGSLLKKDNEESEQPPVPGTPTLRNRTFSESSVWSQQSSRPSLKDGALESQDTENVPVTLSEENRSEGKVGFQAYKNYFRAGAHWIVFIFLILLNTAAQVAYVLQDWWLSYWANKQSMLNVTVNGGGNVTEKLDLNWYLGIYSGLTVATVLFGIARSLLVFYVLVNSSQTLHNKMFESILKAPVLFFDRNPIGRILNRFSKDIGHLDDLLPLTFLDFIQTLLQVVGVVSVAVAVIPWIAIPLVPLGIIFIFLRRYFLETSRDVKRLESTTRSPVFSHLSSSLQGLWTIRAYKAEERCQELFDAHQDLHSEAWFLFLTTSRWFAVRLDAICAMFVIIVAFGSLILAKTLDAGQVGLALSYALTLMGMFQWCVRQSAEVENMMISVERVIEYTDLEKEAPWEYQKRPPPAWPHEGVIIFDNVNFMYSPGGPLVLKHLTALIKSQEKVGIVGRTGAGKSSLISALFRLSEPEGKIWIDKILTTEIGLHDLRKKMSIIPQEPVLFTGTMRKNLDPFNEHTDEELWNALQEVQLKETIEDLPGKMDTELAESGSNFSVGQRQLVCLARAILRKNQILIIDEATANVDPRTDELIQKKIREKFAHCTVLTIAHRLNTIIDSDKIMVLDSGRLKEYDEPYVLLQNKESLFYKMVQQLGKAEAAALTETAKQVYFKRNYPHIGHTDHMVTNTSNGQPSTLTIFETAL

[6] = target: T5, ATP-binding cassette sub-family C member 3 (Homo sapiens, UniProt O15438); experiment: Activity at MRP3 (unknown origin) expressed in baculovirus-infected HEK293 cells assessed as drug transport at 400 uM after 10 mins by reversed-phase HPLC analysis in presence of ATP; conditions: hek293, 10 min, BLD = below limit of detection
[7] = target: T3, Broad substrate specificity ATP-binding cassette transporter ABCG2; experiment: Activity at BCRP (unknown origin) expressed in baculovirus-infected HEK293 cells assessed as drug transport at 400 uM after 10 mins by reversed-phase HPLC analysis in presence of AMP; conditions: hek293, 10 min, BLD = below limit of detection
[8] = target: T5, ATP-binding cassette sub-family C member 3; experiment: Activity at MRP3 (unknown origin) expressed in baculovirus-infected HEK293 cells assessed as drug transport at 400 uM after 10 mins by reversed-phase HPLC analysis in presence of AMP; conditions: hek293, 10 min, BLD = below limit of detection
[9] = target: T2, ATP-binding cassette sub-family C member 2; experiment: Activity at MRP2 (unknown origin) expressed in baculovirus-infected HEK293 cells assessed as drug transport at 400 uM after 10 mins by reversed-phase HPLC analysis in presence of AMP; conditions: hek293, 10 min, BLD = below limit of detection
[10] = Activity at P-gp (unknown origin) expressed in baculovirus-infected HEK293 cells assessed as drug transport at 400 uM after 10 mins by reversed-phase HPLC analysis in presence of AMP; conditions: human, hek293, 10 min, BLD = below limit of detection
[11] = target: T1, Multidrug resistance-associated protein 1; experiment: Activity at MRP1 (unknown origin) expressed in baculovirus-infected HEK293 cells assessed as drug transport at 400 uM after 10 mins by reversed-phase HPLC analysis in presence of AMP; conditions: hek293, 10 min, BLD = below limit of detection
[12] = target: T4, ATP-binding cassette sub-family C member 4; experiment: Activity at MRP4 (unknown origin) expressed in baculovirus-infected HEK293 cells assessed as drug transport at 400 uM after 10 mins by reversed-phase HPLC analysis in presence of AMP; conditions: hek293, 10 min, BLD = below limit of detection

T1 sequence (P33527 whole entry): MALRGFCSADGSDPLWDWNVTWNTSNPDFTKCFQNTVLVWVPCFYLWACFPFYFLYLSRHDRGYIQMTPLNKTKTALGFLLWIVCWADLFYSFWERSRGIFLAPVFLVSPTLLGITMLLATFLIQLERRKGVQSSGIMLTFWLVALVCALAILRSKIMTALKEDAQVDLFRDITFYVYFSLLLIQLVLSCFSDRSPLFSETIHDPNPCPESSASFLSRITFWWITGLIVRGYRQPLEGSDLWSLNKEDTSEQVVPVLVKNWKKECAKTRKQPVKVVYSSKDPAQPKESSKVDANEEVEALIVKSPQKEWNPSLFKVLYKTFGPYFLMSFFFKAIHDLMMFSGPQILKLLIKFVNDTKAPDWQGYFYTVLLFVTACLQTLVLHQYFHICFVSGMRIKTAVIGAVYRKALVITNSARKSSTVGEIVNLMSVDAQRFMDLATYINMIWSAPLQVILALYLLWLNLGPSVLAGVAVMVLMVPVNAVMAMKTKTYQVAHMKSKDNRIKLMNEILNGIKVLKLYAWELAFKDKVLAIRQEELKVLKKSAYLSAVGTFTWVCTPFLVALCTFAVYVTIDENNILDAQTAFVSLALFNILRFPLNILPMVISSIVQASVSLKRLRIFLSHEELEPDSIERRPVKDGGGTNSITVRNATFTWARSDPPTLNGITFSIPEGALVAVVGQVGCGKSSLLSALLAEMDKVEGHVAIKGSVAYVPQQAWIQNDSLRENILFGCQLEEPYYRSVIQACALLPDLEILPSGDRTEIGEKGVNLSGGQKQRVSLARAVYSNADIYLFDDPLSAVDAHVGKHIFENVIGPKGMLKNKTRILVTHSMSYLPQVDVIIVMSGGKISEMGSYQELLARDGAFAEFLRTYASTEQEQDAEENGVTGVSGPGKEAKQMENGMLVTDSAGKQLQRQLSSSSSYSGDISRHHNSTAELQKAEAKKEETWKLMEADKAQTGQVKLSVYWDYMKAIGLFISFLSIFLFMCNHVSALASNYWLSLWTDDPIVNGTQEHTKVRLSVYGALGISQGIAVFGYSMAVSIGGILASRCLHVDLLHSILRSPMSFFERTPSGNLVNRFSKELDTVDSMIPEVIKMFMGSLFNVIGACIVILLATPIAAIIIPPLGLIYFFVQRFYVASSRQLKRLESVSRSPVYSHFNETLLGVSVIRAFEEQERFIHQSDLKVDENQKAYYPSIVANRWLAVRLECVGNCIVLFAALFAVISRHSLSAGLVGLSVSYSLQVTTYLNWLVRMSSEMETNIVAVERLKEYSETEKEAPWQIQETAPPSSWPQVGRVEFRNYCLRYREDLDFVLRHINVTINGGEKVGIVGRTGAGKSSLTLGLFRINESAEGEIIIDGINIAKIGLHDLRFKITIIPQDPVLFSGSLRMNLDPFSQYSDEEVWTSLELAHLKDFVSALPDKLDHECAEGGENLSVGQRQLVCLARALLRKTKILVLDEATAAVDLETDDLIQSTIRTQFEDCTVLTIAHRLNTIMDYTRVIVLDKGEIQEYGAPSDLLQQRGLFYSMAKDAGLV
T5 sequence (O15438 whole entry): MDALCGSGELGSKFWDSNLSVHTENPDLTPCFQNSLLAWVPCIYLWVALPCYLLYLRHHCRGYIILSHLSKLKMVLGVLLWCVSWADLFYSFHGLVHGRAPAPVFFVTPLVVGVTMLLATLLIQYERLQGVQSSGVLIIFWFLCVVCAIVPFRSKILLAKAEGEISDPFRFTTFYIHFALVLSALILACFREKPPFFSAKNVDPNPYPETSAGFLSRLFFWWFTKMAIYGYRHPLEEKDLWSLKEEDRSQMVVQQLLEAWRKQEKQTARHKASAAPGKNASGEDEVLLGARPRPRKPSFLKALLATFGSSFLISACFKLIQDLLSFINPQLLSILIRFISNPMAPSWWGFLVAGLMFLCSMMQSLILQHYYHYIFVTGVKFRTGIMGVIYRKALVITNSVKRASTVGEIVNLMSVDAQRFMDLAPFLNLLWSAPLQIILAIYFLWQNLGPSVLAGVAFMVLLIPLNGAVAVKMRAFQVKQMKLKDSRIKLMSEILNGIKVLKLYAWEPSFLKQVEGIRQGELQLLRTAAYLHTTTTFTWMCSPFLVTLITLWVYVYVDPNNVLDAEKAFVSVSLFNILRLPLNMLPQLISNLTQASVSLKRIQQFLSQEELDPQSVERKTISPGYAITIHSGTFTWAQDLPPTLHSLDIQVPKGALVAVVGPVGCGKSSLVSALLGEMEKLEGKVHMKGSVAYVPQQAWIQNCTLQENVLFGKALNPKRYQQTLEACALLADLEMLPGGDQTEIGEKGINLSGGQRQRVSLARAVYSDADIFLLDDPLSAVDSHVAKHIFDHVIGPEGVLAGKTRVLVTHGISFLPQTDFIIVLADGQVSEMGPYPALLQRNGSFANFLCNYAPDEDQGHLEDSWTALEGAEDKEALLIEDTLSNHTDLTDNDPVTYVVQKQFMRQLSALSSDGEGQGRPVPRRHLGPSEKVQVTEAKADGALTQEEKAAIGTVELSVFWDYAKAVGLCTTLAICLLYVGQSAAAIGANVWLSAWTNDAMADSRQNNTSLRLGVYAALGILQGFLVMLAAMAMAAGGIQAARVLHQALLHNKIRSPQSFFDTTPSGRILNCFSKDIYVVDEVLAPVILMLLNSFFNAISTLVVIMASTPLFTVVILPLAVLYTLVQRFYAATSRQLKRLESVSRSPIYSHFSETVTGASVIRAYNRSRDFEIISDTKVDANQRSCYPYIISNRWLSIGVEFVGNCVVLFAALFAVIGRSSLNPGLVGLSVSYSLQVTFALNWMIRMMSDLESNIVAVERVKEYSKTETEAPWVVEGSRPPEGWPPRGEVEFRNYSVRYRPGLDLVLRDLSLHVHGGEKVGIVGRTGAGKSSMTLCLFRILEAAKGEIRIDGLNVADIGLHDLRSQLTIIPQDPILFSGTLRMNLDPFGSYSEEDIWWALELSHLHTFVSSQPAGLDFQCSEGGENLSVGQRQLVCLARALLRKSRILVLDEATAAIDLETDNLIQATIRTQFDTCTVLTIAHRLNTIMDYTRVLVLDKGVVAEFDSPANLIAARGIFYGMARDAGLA
T2 sequence (Q92887 whole entry): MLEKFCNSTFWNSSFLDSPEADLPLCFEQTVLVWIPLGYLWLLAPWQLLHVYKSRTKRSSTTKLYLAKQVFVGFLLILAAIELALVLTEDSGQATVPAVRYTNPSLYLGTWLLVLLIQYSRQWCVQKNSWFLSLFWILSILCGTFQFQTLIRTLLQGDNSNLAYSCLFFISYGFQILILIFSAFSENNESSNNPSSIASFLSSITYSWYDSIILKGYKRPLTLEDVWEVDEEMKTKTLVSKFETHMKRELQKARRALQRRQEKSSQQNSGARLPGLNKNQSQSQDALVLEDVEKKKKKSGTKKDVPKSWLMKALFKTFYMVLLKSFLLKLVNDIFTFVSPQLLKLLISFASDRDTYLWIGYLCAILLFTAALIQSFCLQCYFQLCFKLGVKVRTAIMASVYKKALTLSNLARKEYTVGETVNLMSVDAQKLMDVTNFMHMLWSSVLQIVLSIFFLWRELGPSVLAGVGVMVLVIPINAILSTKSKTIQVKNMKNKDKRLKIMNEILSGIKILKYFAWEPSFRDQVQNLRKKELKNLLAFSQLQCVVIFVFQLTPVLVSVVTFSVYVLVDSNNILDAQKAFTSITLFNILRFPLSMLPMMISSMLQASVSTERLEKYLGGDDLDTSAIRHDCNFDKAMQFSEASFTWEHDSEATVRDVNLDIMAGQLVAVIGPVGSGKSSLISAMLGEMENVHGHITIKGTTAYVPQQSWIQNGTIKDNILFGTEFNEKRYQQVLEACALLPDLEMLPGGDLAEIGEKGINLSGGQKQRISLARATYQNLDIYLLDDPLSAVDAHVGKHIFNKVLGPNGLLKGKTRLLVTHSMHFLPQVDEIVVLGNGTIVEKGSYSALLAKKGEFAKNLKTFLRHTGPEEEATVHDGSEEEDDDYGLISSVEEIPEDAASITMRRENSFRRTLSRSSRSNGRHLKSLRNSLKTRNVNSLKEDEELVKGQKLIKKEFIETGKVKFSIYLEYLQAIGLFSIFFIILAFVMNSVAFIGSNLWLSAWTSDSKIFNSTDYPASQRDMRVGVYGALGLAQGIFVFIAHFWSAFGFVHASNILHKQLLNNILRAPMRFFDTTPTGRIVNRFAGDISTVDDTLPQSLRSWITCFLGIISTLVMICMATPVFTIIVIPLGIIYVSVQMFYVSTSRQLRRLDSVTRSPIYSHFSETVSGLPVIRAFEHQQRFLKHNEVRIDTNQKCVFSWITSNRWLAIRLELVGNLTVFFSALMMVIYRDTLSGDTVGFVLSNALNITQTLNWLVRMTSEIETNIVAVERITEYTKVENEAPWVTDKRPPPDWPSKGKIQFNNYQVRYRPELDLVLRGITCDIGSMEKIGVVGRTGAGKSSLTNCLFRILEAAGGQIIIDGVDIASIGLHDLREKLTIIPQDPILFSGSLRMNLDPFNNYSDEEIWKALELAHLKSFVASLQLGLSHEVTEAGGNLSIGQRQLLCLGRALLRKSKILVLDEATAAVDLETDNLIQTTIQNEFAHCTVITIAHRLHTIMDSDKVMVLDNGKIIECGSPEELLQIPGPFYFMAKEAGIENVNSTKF

Row | Drug transport [1] | Drug transport ([2]; BLD = below limit of detection) | Drug transport [3] | Drug transport [4] | Drug transport [5] | Drug transport [6] | Drug transport [2] | Drug transport [7] | Drug transport [8] | Drug transport [9] | Drug transport [10] | Drug transport [11] | Drug transport [12] | SMILES
1 | BLD | BLD | BLD | BLD | BLD | BLD | – | – | – | – | – | – | – | O=c1ccc2ccc(O)cc2o1 [UMBELLIFERONE]
2 | – | – | – | – | – | – | Not Active | BLD | BLD | BLD | BLD | BLD | BLD | O=C(O)[C@H]1O[C@@H](Oc2ccc3ccc(=O)oc3c2)[C@H](O)[C@@H](O)[C@@H]1O
